Measured values: patent publication US20080004276A1, “Method for treating non-hodgkin's lymphoma” (priority 2006, published 2008)
Entries after “also recorded” stand apart in the source; their conditions may differ.

How the values were obtained:
[1] = tested on: Daudi; assay: Daudi non-Hodgkin's lymphoma SCID mouse xenograft; type: in vivo; conditions: 25 mg/kg i.v., 5 times per week, 15 doses
Procedure: FBS was obtained from ATCC and all other reagents were obtained from Invitrogen Corp. (Carlsbad, Calif., USA). Cells that had been cryopreserved in liquid nitrogen were rapidly thawed at 37° C. and transferred to a tissue culture flask containing growth media and then incubated at 37° C. in a 5% CO2 incubator. To expand the cell line, cultures were passaged 1:2 to a density of 5×10(6) cells/ml every three days by adding an equal volume of fresh growth media. When the flasks reached a density of approximately 10×10(6) cells/ml, the above passaging process was repeated until sufficient cells had been obtained for implantation into mice.
(§1) Seven to eight week old, female CB17/Icr-Prkdc^scid/Crl (SCID) mice were obtained from Charles River Laboratories (Wilmington, Mass., USA). Animals were housed 4-5/cage in micro-isolators, with a 12 hr/12 hr light/dark cycle, acclimated for at least 1 week prior to use and fed normal laboratory chow ad libitum. Studies were conducted on animals that were between 8 and 12 weeks of age at the time of tumor cell implantation. […] Using a 27 gauge needle and 1 cc syringe, 0.1 ml of the cell suspension was injected subcutaneously into the shaved flanks of SCID mice. To implant SU-DHL-4 tumor cells into SCID mice, cell cultures were centrifuged to pellet the cells, the supernatant was aspirated and the cell pellet was resuspended in 10 ml of growth media and the cell number determined using a hemocytometer, washed in PBS and resuspended at a concentration of 10×10(7) cells/ml in 50% PBS and 50% Matrigel Basement Membrane Matrix (#354234; BD Biosciences; Bedford, Mass., USA). Using a 27 gauge needle and 1 cc syringe, 0.1 ml of the cell suspension was injected subcutaneously into the shaved flanks of SCID mice.
Tumors were then permitted to develop in vivo until the majority reached 100-200 mm^3 in tumor volume, which typically required 2-3 weeks following implantation. […] Tumor volumes (V) were calculated by caliper measurement of the width (W), length (L) and thickness (T) of tumors using the following formula: V=0.5236×(L×W×T). […]

[2] = tested on: SU-DHL-4; assay: SU-DHL-4 non-Hodgkin's lymphoma SCID mouse xenograft; type: in vivo; conditions: for % T/C value: FIG. 6
Procedure: The human non-Hodgkin's lymphoma tumor cell line, SU-DHL-4 (DSMZ #ACC 495), sub-classified as a GCB-type diffuse large B-cell lymphoma, was obtained from Deutsche Sammlung von Mikroorganismen und Zellkulturen GmbH (DSMZ; Braunschweig, Germany). […] FBS was obtained from ATCC and all other reagents were obtained from Invitrogen Corp. (Carlsbad, Calif., USA). Approximately 3-4×10(7) cells that had been cryopreserved in liquid nitrogen were rapidly thawed at 37° C. and transferred to a 175 cm^2 tissue culture flask containing 50 ml of growth media and then incubated at 37° C. in a 5% CO2 incubator. To passage and expand the cell line, the contents of a flask were centrifuged to pellet the cells, the supernatant was aspirated and the cell pellet was resuspended in 10 ml of growth media and the cell number determined using a hemocytometer. Approximately 3-4×10(7) cells per flask were seeded into 175 cm^2 flasks containing 50 ml of growth media and incubated at 37° C. in a 5% CO2 incubator. The above passaging process was repeated every 2-3 days until sufficient cells had been obtained for implantation into mice.
as §1
Tumors were then permitted to develop in vivo until the majority reached 100-200 mm^3 in tumor volume, which typically required 2-3 weeks following implantation. […] Tumor volumes (V) were calculated by caliper measurement of the width (W), length (L) and thickness (T) of tumors using the following formula: V=0.5236×(L×W×T). Animals were randomized into treatment groups so that the median tumor volumes of each group were similar at the start of dosing. % T/C values, as a measure of efficacy, were determined as follows: • (i) If ΔT>0: % T/C=(ΔT/ΔC)×100 • (ii) If ΔT<0: % T/C=(ΔT/T0)×100 • (iii) ΔT=Change in median tumor volume between start of dosing and the end of study. • (iv) ΔC=Change in median tumor volume between start of dosing and the end of study. • (v) T0=Median tumor volume at start of dosing.
To formulate Compound #226 in DRD, stock solutions of the test article were prepared by dissolving the appropriate amounts of the compound in dimethyl sulfoxide (DMSO) by sonication in an ultrasonic water bath. Stock solutions were prepared weekly, stored at −20° C. and diluted fresh each day for dosing. A solution of 20% Cremophore RH40 (polyoxyl 40 hydrogenated castor oil; BASF Corp., Aktiengesellschaft, Ludwigshafen, Germany) in 5% dextrose in water (Abbott Laboratories, North Chicago, Ill., USA) was also prepared by first heating 100% Cremophore RH40 at 50-60° C. until liquefied and clear, diluting 1:5 with 100% D5W, reheating again until clear and then mixing well. This solution was stored at room temperature for up to 3 months prior to use. To prepare DRD formulations for daily dosing, DMSO stock solutions were diluted 1:10 with 20% Cremophore RH40. […]

[3] = tested on: Her2; assay: IC50 range for inhibition of Her2 degradation (Table 8); type: cell-based; conditions: Homo sapiens
Procedure: Human high-Her2 breast carcinoma BT474 (HTB-20), SK-BR-3 (HTB-30) and MCF-7 breast carcinoma (HTB-22) from American Type Culture Collection, VA, USA were grown in Dulbecco's modified Eagle's medium with 4 mM L-glutamine and antibiotics (100 IU/ml penicillin and 100 ug/ml streptomycine; GibcoBRL). To obtain exponential cell growth, cells were trypsinized, counted and seeded at a cell density of 0.5×10^6 cells/ml regularly, every 3 days. All experiments were performed on day 1 after cell passage. […]
After treatment with a compound of the invention, cells were washed twice with 1×PBS/1% FBS, and then stained with anti-Her2-FITC (#340553, BD) for 30 min at 4° C. Cells were then washed three times in FACS buffer before the fixation in 0.5 ml 1% paraformadehydrede. Data was acquired on a FACSCalibur system. Isotype-matched controls were used to establish the non-specific staining of samples and to set the fluorescent markers. A total 10,000 events were recorded from each sample. Data were analysed by using CellQuest software (BD Biosciences).

Row | Structure (SMILES) | IC50 [3] | also measured
1 | CC(C)c1cc(-c2nnc(O)n2-c2ccc3c(ccn3C)c2)c(O)cc1O [Compound 226, 3-(2,4-dihydroxy-5-isopropyl-phenyl)-4-(1-methyl-indol-5-yl)-5-hydroxy-[1,2,4] triazole] |  | overt toxicity ([1]; SCID mice): not associated with overt toxicity; also recorded: Overt toxicity was not observed; % T/C value ([1]; SCID mice, FIG. 5): 1.5%; average bodyweight loss relative to the start of the study ([1]; day 41 / over the course of the study): −1.0%; % T/C value ([2]; 50 mg/kg i.v., 2 times per week, 4 doses, SCID mice): 34.9%; % T/C value ([2]; 75 mg/kg i.v., 2 times per week, 4 doses, SCID mice): 8.1%; % T/C value ([2]; 100 mg/kg i.v., 2 times per week, 4 doses, SCID mice): −10.4%; overt toxicity ([2]; 50, 75 and 100 mg/kg i.v., 2 times per week, 4 doses, SCID mice): not associated with overt toxicity; also recorded: Overt toxicity was not observed; average bodyweight loss relative to the start of the study ([2]; highest dose group 100 mg/kg i.v., 2 times per week, 4 doses, day 31): −4.2%; average bodyweight loss ([2]; over the course of the study, dose not stated (text on FIG. 6)): −1.0%
2 | CCc1cc(-c2nnc(S)n2-c2ccc(OC)c(N(C)C)c2)c(O)cc1O [Compound 251, 4-(4-(3-(dimethylamino)-4-methoxyphenyl)-5-mercapto-4H-1,2,4-triazol-3-yl)-6-ethylbenzene-1,3-diol] | < 3 µM | 
3 | Oc1nc(O)c(-c2nnc(S)n2-c2cccc3ccccc23)cc1F [Compound 62, 3-(2,6-Dihydroxy5-fluoro-pyridin-3-yl) 4-(naphthalen-1-yl)-5-mercapto-triazole] | 10 to 100 µM | 
4 | CC(C)n1ccc2c(-n3c(S)nnc3-c3ccc(O)cc3O)cccc21 [Compound 88, 3-(2,4-Dihydroxyphenyl)-4-(1-isopropyl-indol-4-yl)-5-mercapto-triazole] | < 3 µM | 
5 | Cc1cc(C)cc(-n2c(S)nnc2-c2ccc(O)cc2O)c1 [Compound 30] | 10 to 100 µM | 
6 | CCc1cc(-c2nnc(S)n2-c2cccc3c(OC)cccc23)c(O)cc1O [Compound 8, 3-(2,4-Dihydroxy-5-ethyl-phenyl)-4-(5-methoxy-naphthalen-1-yl)-5-mercapto-triazole] | < 3 µM | 
7 | Cc1cccc(-n2c(S)nnc2-c2ccc(O)cc2O)c1C [Compound 34, 3-(2,4-Dihydroxyphenyl)-4-(2,3-dimethylphenyl)-5-mercapto-triazole] | 3 to 10 µM | 
8 | Oc1cc(O)c(C2CC2)cc1-c1nnc(S)n1-c1cccc2ccccc12 [Compound 189, 3-(2,4-Dihydroxy-5-cyclopropyl-phenyl)-4-(naphthalene-1-yl)-5-mercapto-triazole] | < 3 µM | 
9 | Oc1ccc(-c2nnc(S)n2-c2cccc3[nH]ccc23)c(O)c1 [Compound 95, 3-(2,4-Dihydroxy-phenyl)-4-(indol-4-yl)-5-mercapto-triazole] | < 3 µM | 
10 | COc1ccc(-n2c(S)nnc2-c2ccc(O)cc2O)cc1 [Compound 22, 3-(2,4-Dihydroxyphenyl)-4-(4-methoxyphenyl)-5-mercapto-triazole] | 10 to 100 µM | 
11 | COCCOc1ccc(-n2c(S)nnc2-c2ccc(O)cc2O)c2ccccc12 [Compound 2, 3-(2,4-Dihydroxyphenyl)-4-[4-(2-methoxyethoxy)-naphthalen-1-yl]-5-mercapto-triazole] | 3 to 10 µM | 
12 | COc1cccc(-n2c(S)nnc2-c2ccc(O)cc2O)c1 [Compound 21, 3-(2,4-Dihydroxyphenyl)-4-(3-methoxyphenyl)-5-mercapto-triazole] | 10 to 100 µM | 
13 | CCc1cc(-c2nnc(S)n2-c2ccc3[nH]c(C)c(C)c3c2)c(O)cc1O [Compound 185, 3-(2,4-Dihydroxy-5-ethyl-phenyl)-4-(2,3-dimethyl-indol-5-yl)-5-mercapto-triazole] | < 3 µM | 
14 | Oc1ccc(-c2nnc(S)n2-c2ccc3c4c(cccc24)CC3)c(O)c1 [Compound 36, 3-(2,4-Dihydroxyphenyl)-4-(acenaphthalen-5-yl)-5-mercapto-triazole] | 3 to 10 µM | 
15 | CCc1cc(-c2nnc(S)n2-c2ccc(OC)c(N(C)C(C)C)c2)c(O)cc1O [Compound 249, 4-(4-(3-(N-isopropyl-N-methylamino)-4-methoxyphenyl)-5-mercapto-4H-1,2,4-triazol-3-yl)-6-ethylbenzene-1,3-diol] | < 3 µM | 
16 | [O-][n+]1ccc(-c2nnc(S)n2-c2cccc3ccccc23)c(O)c1 [Compound 98, 3-(1-Oxo-3-hydroxy-pyridin-4-yl)-4-(naphthalen-1-yl)-5-mercapto-triazole] | 10 to 100 µM | 
